Measurements from patent publication US20030114666A1, “Antibacterial agents” (priority 2001, published 2003).
Converted amounts (≈) assume the structure as drawn. Like-named read-outs stand apart in the source and are kept apart here.

Assays:
S. aureus 29213 = assay: Test A antibacterial assay, standard microtitration (MIC); format: cell-based; settings: Gram positive, S. aureus 29213
Description: (§1) Test A-Antibacterial Assay
(§2) The compounds of the present invention were tested against an assortment of Gram-negative and Gram-positive organisms using standard microtitration techniques (Cohen, et al., Antimicrob. Agents Chemother., 1985;28:766; Heifetz, et al., Antimicrob. Agents Chemother:, 1974;6:124). […]

E. faecalis RB1 = assay: as above; format: cell-based; settings: Gram positive, E. faecalis RB1
Description: as §1, §2

E. coli B90 = assay: as above; format: cell-based; settings: Gram negative, E. coli B90
Description: as §1, §2

E. coli Tol C = assay: as above; format: cell-based; settings: for Minimum Inhibitory Concentrations E. coli Tol C: Gram negative
Description: as §1, §2

E. coli MC 4100 = assay: as above; format: cell-based; settings: Gram negative, E. coli MC 4100
Description: as §1, §2

S. pyogenes C203 = assay: as above; format: cell-based; settings: Gram positive, S. pyogenes C203
Description: as §1, §2

E. coli gyrase = E. coli gyrase (Escherichia coli, UniProt P0AES4+P0AES6); assay: biochemical
E. coli gyrase, sequence (P0AES4 whole entry, one chain of several): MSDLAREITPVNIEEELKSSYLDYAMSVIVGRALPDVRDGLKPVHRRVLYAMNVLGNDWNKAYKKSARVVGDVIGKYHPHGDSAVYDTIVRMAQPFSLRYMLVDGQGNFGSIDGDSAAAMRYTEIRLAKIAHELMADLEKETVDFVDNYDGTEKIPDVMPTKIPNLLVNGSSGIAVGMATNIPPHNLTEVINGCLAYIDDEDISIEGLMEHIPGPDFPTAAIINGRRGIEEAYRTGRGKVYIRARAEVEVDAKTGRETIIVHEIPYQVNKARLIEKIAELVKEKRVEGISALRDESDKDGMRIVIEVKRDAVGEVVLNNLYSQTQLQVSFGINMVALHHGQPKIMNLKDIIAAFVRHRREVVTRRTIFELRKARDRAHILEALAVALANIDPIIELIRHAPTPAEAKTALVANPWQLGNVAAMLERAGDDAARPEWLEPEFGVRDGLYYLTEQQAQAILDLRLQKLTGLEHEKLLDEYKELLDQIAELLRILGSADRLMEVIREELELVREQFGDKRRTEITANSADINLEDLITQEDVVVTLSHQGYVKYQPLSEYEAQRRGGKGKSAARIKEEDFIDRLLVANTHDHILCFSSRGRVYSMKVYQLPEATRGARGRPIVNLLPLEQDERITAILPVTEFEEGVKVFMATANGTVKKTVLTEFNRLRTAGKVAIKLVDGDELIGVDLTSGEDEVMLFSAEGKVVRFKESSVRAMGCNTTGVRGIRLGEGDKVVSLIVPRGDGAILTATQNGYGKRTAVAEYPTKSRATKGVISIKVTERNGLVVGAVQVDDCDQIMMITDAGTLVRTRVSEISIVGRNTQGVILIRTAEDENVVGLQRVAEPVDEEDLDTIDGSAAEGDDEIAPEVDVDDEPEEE

S. aureus 2552 = assay: Test D cross resistance antibacterial assay (MIC); format: cell-based; settings: for MIC fold increase S. aureus 2552 (in parentheses): relative to MIC against S. aureus UC-76
Description: (§3) Test D-Cross Resistance Antibacterial Assay
(§4) The compounds of the present invention were tested against an assortment of ciprofloxacin resistant E. coli and S. aureus organisms described below using standard microtitration techniques (Cohen, et al., Antimicrob. Agents Chemother., 1985;28:766; Heifetz, et al., Antimicrob. Agents Chemother., 1974;6:124). […].

N. gonorrhoeae 2709 = assay: Test D cross resistance antibacterial assay (MIC); format: cell-based, Neisseria gonorrhoeae; settings: for MIC fold increase N. g. 2709 (in parentheses): relative to MIC against N. g. 2637
Description: as §3, §4
N. gonorrhoeae 2709 (N.g. 2709): Isogenic to N. gonorrhoeae 2637 contains gyrA quinolone-resistant determining region (QRDR) mutations (S91F D95G).

N. gonorrhoeae 2637 = assay: Test D cross resistance antibacterial assay (MIC); format: cell-based, Neisseria gonorrhoeae; settings: parent strain, derivative of MS11
Description: as §3, §4
N. gonorrhoeae 2637 (N.g. 2637) is a derivative of Neisseria gonorrhoeae MS11 containing a TAC-LAC recA to allow for control of homologous recombination [Tonjum T. et al. Molecular Microbiology 1995, 16, 451-64].

S. aureus 2554 = assay: Test D cross resistance antibacterial assay (MIC); format: cell-based; settings: for MIC fold increase S. aureus 2554 (in parentheses): relative to MIC against S. aureus UC-76
Description: as §3, §4
S. aureus 2554: Isogenic to S. aureus 2552, with point mutation at position 80 of grlA subunit.

S. aureus 2558 = assay: Test D cross resistance antibacterial assay (MIC); format: cell-based; settings: for MIC fold increase S. aureus 2558 (in parentheses): relative to MIC against S. aureus UC-76
Description: as §3, §4
S. aureus 2558: Isogenic to S. aureus 2554, with point mutation at position 84 of gyrA subunit.

N. gonorrhoeae 2693 = assay: Test D cross resistance antibacterial assay (MIC); format: cell-based, Neisseria gonorrhoeae; settings: for MIC fold increase N. g. 2693 (in parentheses): relative to MIC against N. g. 2637
Description: as §3, §4
N. gonorrhoeae 2693 (N.g. 2693): Isogenic to N. gonorrhoeae 2709 containing parC QRDR mutations [P88S and E91K].

S. aureus UC-76 = assay: Test D cross resistance antibacterial assay (MIC); format: cell-based; settings: wild type sensitive laboratory strain
Description: as §3, §4
S. aureus UC-76: Typical sensitive laboratory strain (Wild type).

S. pyogenes = assay: Test C in vivo activity, median protective dose in mice given lethal systemic infections; settings: PO, lethal systemic infection with S. pyogenes

1-Cyclopropyl-7-(5,5-difluoro-4-hydroxy-4,5,6,7-tetrahydrobenzo[b]thiophen-2-yl)-6-fluoro-8-methyl-1H-quinazolinedione [Example 23b]
Minimum Inhibitory Concentrations S. aureus 29213 (S. aureus 29213): 0.5 µg/mL
Minimum Inhibitory Concentrations E. faecalis RB1 (E. faecalis RB1): 1.0 µg/mL
Minimum Inhibitory Concentrations E. coli B90 (E. coli B90): 0.13 µg/mL
Minimum Inhibitory Concentrations E. coli Tol C (E. coli Tol C): <0.06 µg/mL
Minimum Inhibitory Concentrations E. coli MC 4100 (E. coli MC 4100): 16.0 µg/mL
Minimum Inhibitory Concentrations S. pyogenes C203 (S. pyogenes C203): 2.0 µg/mL
IC50 (E. coli gyrase; supercoiling of relaxed pBR322, 30 minutes at 37° C.): 1000 nM

7-(3-[1-Amino-1-(2-fluorophenyl)methyl]pyrrolidin-1-yl}-1-cyclopropyl-6-fluoro-6-methyl-1H-quinazolinedione Hydrochloride [Example 7j]
MIC fold increase S. aureus 2552 (in parentheses) (S. aureus 2552): (1x)
Minimum Inhibitory Concentrations S. aureus 2552 (S. aureus 2552; upregulated norA pump): 0.06 µg/mL
Minimum Inhibitory Concentrations N. g. 2709 (N. gonorrhoeae 2709; gyrA QRDR mutations (S91F D95G)): 0.5 µg/mL
MIC fold increase N. g. 2709 (in parentheses) (N. gonorrhoeae 2709): (4x)
Minimum Inhibitory Concentrations N. g. 2637 (N. gonorrhoeae 2637): 0.13 µg/mL
Minimum Inhibitory Concentrations S. aureus 2554 (S. aureus 2554; norA plus point mutation at position 80 of grlA): 0.06 µg/mL
MIC fold increase S. aureus 2554 (in parentheses) (S. aureus 2554): (1x)
Minimum Inhibitory Concentrations S. aureus 2558 (S. aureus 2558; norA, grlA plus point mutation at position 84 of gyrA): 0.06 µg/mL
MIC fold increase S. aureus 2558 (in parentheses) (S. aureus 2558): (1x)
Minimum Inhibitory Concentrations S. aureus 29213 (S. aureus 29213): 0.13 µg/mL
Minimum Inhibitory Concentrations E. faecalis RB1 (E. faecalis RB1): 0.25 µg/mL
Minimum Inhibitory Concentrations E. coli B90 (E. coli B90): 0.25 µg/mL
Minimum Inhibitory Concentrations E. coli Tol C (E. coli Tol C): 0.06 µg/mL
Minimum Inhibitory Concentrations E. coli MC 4100 (E. coli MC 4100): 8.0 µg/mL
Minimum Inhibitory Concentrations S. pyogenes C203 (S. pyogenes C203): 0.03 µg/mL
IC50 (E. coli gyrase): 800 nM
Minimum Inhibitory Concentrations N. g. 2693 (N. gonorrhoeae 2693; gyrA plus parC QRDR mutations [P88S and E91K]): 1.0 µg/mL
MIC fold increase N. g. 2693 (in parentheses) (N. gonorrhoeae 2693): (8x)
Minimum Inhibitory Concentrations S. aureus UC-76 (S. aureus UC-76): 0.06 µg/mL

7-[(R)-3-(1-Aminocyclopropyl)pyrrolidin-1-yl]-1-cyclopropyl-6-fluoro-8-methyl-1 h-quinazolinedione Hydrochloride [Example 26b]
Minimum Inhibitory Concentrations S. aureus 29213 (S. aureus 29213): 0.25 µg/mL
Minimum Inhibitory Concentrations E. faecalis RB1 (E. faecalis RB1): 0.13 µg/mL
Minimum Inhibitory Concentrations E. coli B90 (E. coli B90): 0.25 µg/mL
Minimum Inhibitory Concentrations E. coli Tol C (E. coli Tol C): 0.13 µg/mL
Minimum Inhibitory Concentrations E. coli MC 4100 (E. coli MC 4100): 2.0 µg/mL
Minimum Inhibitory Concentrations S. pyogenes C203 (S. pyogenes C203): 0.03 µg/mL
IC50 (E. coli gyrase): 1600 nM

7-[(R)-3-((S)-1-Aminoethyl)pyrrolidin-1-yl]-1-cyclopropyl-6-fluoro-5,8-dimethyl-1H-quinazolinedione Hydrochloride [Example 41c]
Minimum Inhibitory Concentrations S. aureus 29213 (S. aureus 29213): 0.03 µg/mL
Minimum Inhibitory Concentrations E. faecalis RB1 (E. faecalis RB1): 0.03 µg/mL
Minimum Inhibitory Concentrations E. coli B90 (E. coli B90): 0.25 µg/mL
Minimum Inhibitory Concentrations E. coli Tol C (E. coli Tol C): 0.06 µg/mL
Minimum Inhibitory Concentrations E. coli MC 4100 (E. coli MC 4100): 2.0 µg/mL
Minimum Inhibitory Concentrations S. pyogenes C203 (S. pyogenes C203): 0.008 µg/mL
IC50 (E. coli gyrase): 600 nM

O=C(O)c1cn(C2CC2)c2cc(N3CCNCC3)c(F)cc2c1=O [Ciprofloxacin, ciprofloxacin, reference compound]
MIC (S. aureus 2552; Staphylococcus aureus, 2552, upregulated norA pump, read-out: Minimum Inhibitory Concentrations S. aureus 2552): 2 µg/mL (≈ 6.04 µM)
MIC fold increase S. aureus 2552 (in parentheses) (S. aureus 2552): (15x)
MIC (N. gonorrhoeae 2709; Neisseria gonorrhoeae, 2709, read-out: Minimum Inhibitory Concentrations N. g. 2709): 0.06 µg/mL (≈ 0.181 µM)
MIC fold increase N. g. 2709 (in parentheses) (N. gonorrhoeae 2709): (30x)
MIC (N. gonorrhoeae 2637; Neisseria gonorrhoeae, 2637, read-out: Minimum Inhibitory Concentrations N. g. 2637): 0.002 µg/mL
MIC fold increase S. aureus 2554 (in parentheses) (S. aureus 2554): (15x)
MIC fold increase S. aureus 2558 (in parentheses) (S. aureus 2558): (123x)
MIC (S. aureus 29213; Staphylococcus aureus, read-out: Minimum Inhibitory Concentrations S. aureus 29213): 0.5 µg/mL (≈ 1.51 µM)
MIC (E. faecalis RB1; Enterococcus faecalis, read-out: Minimum Inhibitory Concentrations E. faecalis RB1): 0.5 µg/mL (≈ 1.51 µM)
MIC (E. coli B90; Escherichia coli, read-out: Minimum Inhibitory Concentrations E. coli B90): < 0.01 µg/mL
MIC (E. coli Tol C; Escherichia coli, read-out: Minimum Inhibitory Concentrations E. coli Tol C): < 0.01 µg/mL
MIC (E. coli MC 4100; Escherichia coli, MC4100, read-out: Minimum Inhibitory Concentrations E. coli MC 4100): < 0.02 µg/mL
MIC (S. pyogenes C203; Streptococcus pyogenes, read-out: Minimum Inhibitory Concentrations S. pyogenes C203): 0.5 µg/mL (≈ 1.51 µM)
MIC fold increase N. g. 2693 (in parentheses) (N. gonorrhoeae 2693): (1000x)
MIC (S. aureus UC-76; Staphylococcus aureus, UC76, read-out: Minimum Inhibitory Concentrations S. aureus UC-76): 0.13 µg/mL (≈ 0.392 µM)
PD50 (S. pyogenes): >100.0 mg/kg
